Where “and” joins values, the source holds several entries; their conditions need not be identical. Identical values can stand only once. Like-named read-outs stand apart in the source and are kept apart here.
Legend:
VSV = assay: microbe, parasite or virus in culture; design: species or system Vesicular stomatitis virus; conditions: for log reduction at 1 µg/mL: read-out: virus kill, 1 μg/ml; for log reduction at 1000 µg/mL: read-out: virus kill, 1 mg/ml (so in the source)
[1] = system: Human atherosclerotic iliofemoral arteries and aorta; assay: In vitro human atherosclerotic tissue study, fluorescence microscopy
Procedure: Human atherosclerotic iliofemoral arteries and aorta were harvested and wrapped in saline-soaked gauze and then incubated for 2 hours at room temperature in MEM-Eagle's Medium and 10% fetal calf serum mixed with BPD-MA formulated at 30 μg/ml. The BPD was prepared by mixing 1 ml of BPD-MA stock solution with 8.1 ml MEM-Eagle's Medium and 0.9 ml fetal calf serum.
The sample was rinsed three times in cold normal saline, and the sections were examined by fluorescence microscopy to evaluate the uptake of BPD. The administered dose was finally diluted to provide solutions containing 0.5-200 μg/ml, and incubation time was varied.

colon adenocarcinoma [2] = conditions: rat, in vivo
P815 target cells = conditions: mouse, in vivo, iv
Procedure: (§4) To determine biodegradability, tritiated BPD-MA was injected IV into P815 tumor-bearing mice. The mice were sacrificed at either 3 or 24 hours following injection and tumors, livers and kidneys were removed. The BPD-MA in these tissues was extracted and photoactivity was assessed in P815 target cells as described above in Example 1 under standard in vitro conditions.

M-1 rhabdomycoscercoma = assay: In vivo photosensitization, M-1 rhabdomyosarcoma system in DBA/J2 mice
Procedure: Studies of potential photosensitizers were performed using the M-1 rhabdomycoscercoma system in DBA/J2 mice. The compositions to be tested were diluted to a concentration of […] in PBS from a stock solution in DMSO at 8 mg/ml (except Photofrin® II, which was diluted directly from the clinical vial). […]

skin = conditions: mouse, in vivo
Procedure: Mice bearing P815 tumors were shaved and injected with equivalent amounts of photosensitizer, and exposed to 72 Jo/cm^2 (80 mw/cm^2 -15 min-full spectrum) at various time intervals. Skin biopsies were taken at 24 and 48 hours after light irradiation and visual evaluations were made blind.

target cells = assay: In vitro evaluation of BPD-DA, -MA, -DB and -MB (as in Example 1); assay type: cell-based
Procedure: For the "affinity" assay, in the dark, 100 μl of the target cell suspension and 100 μl of the test or control compound were mixed. "Labeling" was allowed to continue for one hour at 4° C., and labeled cells were washed in the dark three times with 3 ml medium each time and resuspended in fresh medium. The resuspended cells were then subjected to light exposure at 300-750 nanometers for 30 minutes.
In a "direct" assay the target cells were irradiated immediately upon addition of the test or control compound.
The effect of irradiation was estimated using methods appropriate to the target cells.
The four compounds shown in FIG. 2, wherein R^1 and R^2 are carbomethoxy, were tested in vitro as described in Example 1.

[3] = system: warts caused by Papilloma virus; assay: Systemic administration, papilloma-caused warts in rabbits; assay type: in vivo, rabbit; conditions: of 12 warts, 2 mg/kg IV
Procedure: Rabbits displaying warts caused by Papilloma virus were provided according to the model described by Shope et al., J. Exp. Med, (1933) 58:607-624. Five rabbits were administered Photofrin® II porfimer sodium intravenously at 10 mg/kg total dose over a ≤5 minute period beginning 24 hours before irradiation treatment. Six rabbits were administered BPD-MA intravenously at 2 mg/kg total dose over a ≤5 minute period beginning 2.5-3.5 hours before irradiation treatment. Warts were irradiated individually with no light, 150 J/cm^2 or 250 J/cm^2 using 630 nm for porfimer sodium and 690 nm for BPD-MA.

in vivo = conditions: mouse, iv
Procedure: as §4

atherosclerotic aortas = assay: Rabbit studies of aorta, fluorescence microscopy; assay type: in vivo
Procedure: The rabbits were injected with BPD-MA at various dosages and time intervals prior to sacrifice. The rabbits were euthanized by injection and the entire descending aorta was removed, sectioned, and examined by fluorescence microscopy.

tumor cells = assay: Alternate in vivo assay: kill of tumor cells from dosed mice (MTT); conditions: 180 min
colon adenocarcinoma [4] = assay: Detection of tumors by fluorescence in rats; conditions: 3.5 mg/kg IV; 3 h
[5] = assay type: in vitro ADME; conditions: human
Procedure: (§1) Franz in vitro percutaneous diffusion chambers were used to conduct studies of BPD formulations with oleic acid and oleyl alcohol vehicles (^14 C-BPD having a specific activity of 6 μCi was used). Excised split thickness (200 μ) human cadaver skin was mounted on the chamber (surface area 3 cm^2). The lower reservoir contained 4% bovine serum albumen in isotonic buffered saline, pH 7.0.
(§2) The chambers with the skin were equilibrated to 37° C. prior to application of the drug formulations. Formulations ([…] containing 1.67 μCi) were applied to the epidermal surface of the skin. The chamber was covered (occluded) to prevent evaporation, and the experiment was conducted in the dark.
(§3) Six diffusion cells were run for each time point (1.5 hr, 3 hr, 24 hr) for each formulation. Samples were removed from the dermal chamber at 1.5 hr, 3 hr and 24 hr. Cumulative penetration was assayed by liquid scintillation.
At the end of the respective time point, the surface of the skin was washed to remove surface drug. A 4 mm full thickness skin punch biopsy was taken from each specimen and processed for frozen section tissue fluorescence. This necessitates termination of flux measurements in that chamber. The stratum corneum was removed by 25 repetitive strippings with cellophane tape and counted in groups of five. The epidermis was heat-separated from the dermis by heating to 60° C. for 1 minute. These tissues were then digested and the ^14 C-BPD content of each of the skin compartments and reservoir was determined by liquid scintillation counting. (In the tables, "BPD-OA" and "BPD-OL" represent the BPD-oleic acid and BPD-oleyl alcohol formulations of the preceding example, "CH-014" represents ^14 C-labeled BPD-MA, and "phospholipid" represents a BPD-MA liposomal formulation.)

[6] = assay type: in vitro ADME, human
Procedure: as §1, §2, §3
At the end of the respective time point, the surface of the skin was washed to remove surface drug. A 4 mm full thickness skin punch biopsy was taken from each specimen and processed for frozen section tissue fluorescence. […] The stratum corneum was removed by 25 repetitive strippings with cellophane tape and counted in groups of five. […] These tissues were then digested and the ^14 C-BPD content of each of the skin compartments and reservoir was determined by liquid scintillation counting. […]

## C=Cc1c(C)c2cc3nc(cc4[nH]c(cc5nc(cc1[nH]2)C(C)=C5CCC(=O)O)c(CCC(=O)OC)c4C)C1(C)C3=CC=C(C(=O)OC)C1C(=O)OC (stereo not drawn) [BPD-MA]
VSV; 1, 2 and 4 μg/ml, 1 ml samples, 2 h before light
  relationship between total light energy and drug dose required to inactivate VSV: inverse relationship between total light energy and the drug dose required to inactivate the VSV
VSV; 2 and 4 μg/ml, 2 h dark incubation, 57.6 J/cm^2, 1 and 2 ml samples
  virus inactivation: complete virus inactivation
VSV; 0.5 hour to 1 hour, 1 μg/ml, 57.6 J/cm^2
  effect of increasing incubation time on VSV inactivation: improved VSV inactivation
VSV; Vesicular stomatitis virus, light or radiation study, 2 h, read-out: viral kill, 2 μg/ml, 1 ml, 2 h, 57.6 J/cm^2
  log reduction at 2 µg/mL: 7
VSV; Vesicular stomatitis virus, light or radiation study, 2 h, 28.8 J/cm^2
  log reduction at 1 µg/mL: 2
VSV; Vesicular stomatitis virus, light or radiation study, 2 h, 57.6 J/cm^2
  log reduction at 1 µg/mL: 5
VSV; Vesicular stomatitis virus, light or radiation study, 1 ml sample, 57.6 J/cm^2
  log reduction at 1000 µg/mL: 4
VSV; Vesicular stomatitis virus, light or radiation study, 2 ml sample, 57.6 J/cm^2
  log reduction at 1000 µg/mL: 2
VSV; room temperature, 37° C. or 4° C.
  effect of incubation temperature: little difference
VSV; to 2-3 hours, 1 μg/ml, 57.6 J/cm^2
  effect of further increasing incubation time on VSV inactivation: little effect
[1]; 10 μg/ml or less
  fluorescence for detection of plaques: did not provide sufficient fluorescence to detect the presence of plaques
[1]; 100 μg/ml and above
  fluorescence for detection of plaques: fluorescence was clearly seen
[1]; approximately 25 μg/ml
  fluorescence in plaqued areas: showed most intensely in the plaqued areas
  fluorescence in underlying arterial wall: no fluorescence was seen in the underlying arterial wall
Colon adenocarcinoma [2]
  drug-related signal over malignant tumor: BPD-MA-related signal increases over the malignant tumor
P815 target cells
  degradation in liver and kidney compared with tumor tissue: both the liver and kidney degraded BPD more rapidly than did tumor tissue
M-1 rhabdomycoscercoma; Table 6, 567 Jo/cm^2, IV 24 h before light
  Number of Days Tumor Free (PR): 9.2 days
M-1 rhabdomycoscercoma; Table 6, 567 Jo/cm^2, 8 animals per group
  Cures (tumor regressed and tumor-free for 30 days): 4
M-1 rhabdomycoscercoma; Table 7, light dose 378 To/cm^3
  Days Tumor-free: 13.2 days
M-1 rhabdomycoscercoma; Table 7, light dose 378 To/cm^3, 9-15 animals
  Number of Cures: 4
skin
  skin photosensitizing activity: major photosensitizing activity
  time dependence of skin photosensitizing activity: only present when light treatment was given 3 hours post drug administration
Target cells
  in vitro photosensitivity: somewhat more active
[3]; 150 J/cm^2, 690 nm
  warts completely regressed: 7
  warts showing >50% regression: 5
[3]; 250 J/cm^2, 690 nm
  warts showing complete cure: 12
In vivo
  remaining at 3 h: 100%
  remaining at 24 h: 39%
Atherosclerotic aortas; 30 μg/kg
  fluorescence in aorta tissue samples: No fluorescence was seen
Atherosclerotic aortas; 100 μg/kg
  fluorescence in normal aorta samples: no fluorescence was shown in the normal aorta samples
Atherosclerotic aortas; 100 μg/kg, two samples
  fluorescence in atherosclerotic samples: fluorescence was seen in the plaque but not the arterial wall
Tumor cells; 33 μg/mouse IV, light dose 5.7 Jo
  % Kill: 22.0%
Tumor cells; 40 μg/mouse IV, light dose 3.8 Jo
  % Kill: 32.5%
Tumor cells; 80 μg/mouse IV, light dose 3.8 Jo
  % Kill: 63.5 ± 2.1% and 53.7 ± 6.2%
Colon adenocarcinoma [4]
  ratio of tumor exterior to muscle compared with HP: approximately the same as that for HP

## C=Cc1c(C)c2cc3nc(cc4[nH]c(cc5nc(cc1[nH]2)C(C)=C5CCC(=O)O)c(CCC(=O)OC)c4C)C1(C)C3=CC=C(C(=O)OC)C1C(=O)OC (stereo not drawn) [CH-014]
[5]; 90 min
  PERCENT RECOVERY, Dermis: .19 ± .06%
  PERCENT RECOVERY, Epidermis: .13 ± .13%
  PERCENT RECOVERY, Reservoir: 0%
[5]; 180 min
  PERCENT RECOVERY, Dermis: .32 ± .11%
  PERCENT RECOVERY, Epidermis: .06 ± .02%
  PERCENT RECOVERY, Reservoir: 0%
[5]; 1440 min
  PERCENT RECOVERY, Dermis: .40 ± .28%
  PERCENT RECOVERY, Epidermis: .06 ± .03%
  PERCENT RECOVERY, Reservoir: .014 ± .018%
[6]
  TISSUE FLUORESCENCE, Dermis: 1
